In brackets after ≈: the same amount, converted by molar mass. Like-named read-outs stand apart in the source and are kept apart here.
Assays:
[1] = Measurement of solubility (shake-flask method); type: physicochemical; details: thermodynamic from solid, 37° C., shaken 2 hr
Method: According to the method described in “Thermodynamic Solubility Measurement by the Shake-Flask Method” on page 1229 of Nakashima S., Chem. Pharm. Bull., 61(12) 1228-1238 (2013), the solubility of the crystals and cocrystals of compound (A) was measured. To be specific, the first fluid (JP1), the second fluid (JP2) and the second fluid containing 20 mM sodium glycochenodeoxycholate (JP2/GCDC) of the Japanese Pharmacopoeia disintegration test were added at 400 μL each to the crystals or cocrystals (0.4 mg) of compound (A), and the mixture was heated to 37° C. under air atmosphere, and shaken by a vortex mixer for 2 hr at 500 rpm. After shaking, the mixture was passed through a 0.45 μm PVDF filter, and the filtrate was analyzed by HPLC. From a chromatogram comparison with the standard solution (0.1 mg/mL), the solubility of the crystals of the single compound and the cocrystals was calculated.

[2] = Measurement of dissolution rate (intrinsic dissolution test); type: physicochemical; details: 7 mm disc, 200 rpm, second fluid containing cholic acid, 37° C.
Method: According to the method described in “2.6. Intrinsic dissolution test” on page 231 of Tsutsumi S., Int. J. Pharm., 421 (2011) 230-236, the dissolution rate of the crystals and cocrystals of compound (A) was measured. To be specific, the crystals or cocrystals of compound (A) (20 mg) was pressurized by a hand press tableting machine at 20 MPa for 10 min to give a 7 mm diameter disc. The prepared disc was adhered to the inside of a rotating shaft of the United States Pharmacopeia dissolution test 1 (basket), and inserted, while rotating at 200 rpm, in the second fluid (250 mL) of the Japanese Pharmacopoeia disintegration test containing cholic acid heated to 37° C. The second fluid containing the crystals or cocrystals was collected by 0.5 mL at 1 min intervals, and analyzed by HPLC. From a chromatogram comparison with the standard solution (0.05 mg/mL), the concentration of the crystals or the cocrystals was calculated, and the dissolution rate thereof was calculated.

Method for physchem: The base pKa of the compound (A) and the acid pKa of the gentisic acid were measured using a Sirius T3 titrator manufactured by Sirius. The base pKa means an acid dissociation constant from the protonated state, and the acid pKa means the acid dissociation constant of the acid itself.

solubility at 2 h ([1]; pH 1.2, simulated gastric fluid, first fluid (JP1) of Japanese Pharmacopoeia disintegration test, read-out: solubility JP1) [µg/mL]	solubility at 2 h ([1]; pH 6.8, aqueous buffer, second fluid (JP2) of Japanese Pharmacopoeia disintegration test, read-out: solubility JP2) [µg/mL]	solubility at 2 h ([1]; pH 6.8, fassgf or other biorelevant, second fluid containing 20 mM sodium glycochenodeoxycholate, read-out: solubility JP2/GCDC) [µg/mL]	dissolution rate [2] [μg/mm^2/min]	pKa (physchem)	Structure (SMILES)
1.5 (≈ 4.27 µM)	1.5 (≈ 4.27 µM)	35.6 (≈ 101 µM)	0.2	–	C=CC(=O)N1CC[C@H](Oc2nc(-c3n[nH]c(=O)[nH]3)cc3ccccc23)C1 [compound (A), (S)-3-(1-((1-acryloylpyrrolidin-3-yl)oxy)isoquinolin-3-yl)-1H-1,2,4-triazol-5(4H)-one]
–	–	–	–	3.23	O=C(O)c1cc(O)ccc1O [gentisic acid]
